# System: Unknown protein yeast genes
# Experiment: DNA chip mRNA expression in yeast, unknown protein yeast genes (Table 1)
# Assay type: cell-based, Saccharomyces cerevisiae S288C
# Procedure, shortened: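 Ratios compare mRNA levels in stressed and control S. cerevisiae. Each toxicant was applied for two hours to log-phase cultures at 25° C. at a sub-lethal, growth-inhibiting level; fluorescent cDNA (Cy3- or Cy5-dUTP) was hybridized to a genome-wide yeast chip for over 12 h at 65° C.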
substance,measurement,setting,value
Na2As [(1)],The level of expressed mRNA in the presence of chemical substance/The level of expressed mRNA in the absence of chemical substance,"yeast gene YKL195W, incubated two hours with chemical substance",0.8
same,The level of expressed mRNA in the presence of chemical substance/The level of expressed mRNA in the absence of chemical substance,"yeast gene YKR091W, incubated two hours with chemical substance",1.5
same,The level of expressed mRNA in the presence of chemical substance/The level of expressed mRNA in the absence of chemical substance,"yeast gene YLR054C, incubated two hours with chemical substance",2.0
same,The level of expressed mRNA in the presence of chemical substance/The level of expressed mRNA in the absence of chemical substance,"yeast gene YLR149C, incubated two hours with chemical substance",1.4
same,The level of expressed mRNA in the presence of chemical substance/The level of expressed mRNA in the absence of chemical substance,"yeast gene YLR152C, incubated two hours with chemical substance",0.7
same,The level of expressed mRNA in the presence of chemical substance/The level of expressed mRNA in the absence of chemical substance,"yeast gene YLR194C, incubated two hours with chemical substance",2.1
same,The level of expressed mRNA in the presence of chemical substance/The level of expressed mRNA in the absence of chemical substance,"yeast gene YLR324W, incubated two hours with chemical substance",0.7
same,The level of expressed mRNA in the presence of chemical substance/The level of expressed mRNA in the absence of chemical substance,"yeast gene YLR350W, incubated two hours with chemical substance",1.2
same,The level of expressed mRNA in the presence of chemical substance/The level of expressed mRNA in the absence of chemical substance,"yeast gene YLR387C, incubated two hours with chemical substance",0.9
same,The level of expressed mRNA in the presence of chemical substance/The level of expressed mRNA in the absence of chemical substance,yeast gene YLR460C,2.1
same,The level of expressed mRNA in the presence of chemical substance/The level of expressed mRNA in the absence of chemical substance,"yeast gene YML117W, incubated two hours with chemical substance",0.9
same,The level of expressed mRNA in the presence of chemical substance/The level of expressed mRNA in the absence of chemical substance,"yeast gene YMR009W, incubated two hours with chemical substance",2.3
same,The level of expressed mRNA in the presence of chemical substance/The level of expressed mRNA in the absence of chemical substance,"yeast gene YMR067C, incubated two hours with chemical substance",0.9
same,The level of expressed mRNA in the presence of chemical substance/The level of expressed mRNA in the absence of chemical substance,yeast gene YMR090W,6.9
same,The level of expressed mRNA in the presence of chemical substance/The level of expressed mRNA in the absence of chemical substance,"yeast gene YMR095C, incubated two hours with chemical substance",1.1
same,The level of expressed mRNA in the presence of chemical substance/The level of expressed mRNA in the absence of chemical substance,"yeast gene YMR097C, incubated two hours with chemical substance",1.5
same,The level of expressed mRNA in the presence of chemical substance/The level of expressed mRNA in the absence of chemical substance,"yeast gene YMR102C, incubated two hours with chemical substance",1.0
same,The level of expressed mRNA in the presence of chemical substance/The level of expressed mRNA in the absence of chemical substance,"yeast gene YMR107W, incubated two hours with chemical substance",5.0
same,The level of expressed mRNA in the presence of chemical substance/The level of expressed mRNA in the absence of chemical substance,"yeast gene YMR180C, incubated two hours with chemical substance",1.2
same,The level of expressed mRNA in the presence of chemical substance/The level of expressed mRNA in the absence of chemical substance,"yeast gene YMR184W, incubated two hours with chemical substance",1.3
same,The level of expressed mRNA in the presence of chemical substance/The level of expressed mRNA in the absence of chemical substance,"yeast gene YMR191W, incubated two hours with chemical substance",1.3
same,The level of expressed mRNA in the presence of chemical substance/The level of expressed mRNA in the absence of chemical substance,"yeast gene YMR295C, incubated two hours with chemical substance",1.7
same,The level of expressed mRNA in the presence of chemical substance/The level of expressed mRNA in the absence of chemical substance,"yeast gene YMR316W, incubated two hours with chemical substance",3.2
same,The level of expressed mRNA in the presence of chemical substance/The level of expressed mRNA in the absence of chemical substance,"yeast gene YNL044W, incubated two hours with chemical substance",1.3
same,The level of expressed mRNA in the presence of chemical substance/The level of expressed mRNA in the absence of chemical substance,"yeast gene YNL074C, incubated two hours with chemical substance",0.9
same,The level of expressed mRNA in the presence of chemical substance/The level of expressed mRNA in the absence of chemical substance,"yeast gene YNL092W, incubated two hours with chemical substance",1.3
same,The level of expressed mRNA in the presence of chemical substance/The level of expressed mRNA in the absence of chemical substance,"yeast gene YNL115C, incubated two hours with chemical substance",0.7
same,The level of expressed mRNA in the presence of chemical substance/The level of expressed mRNA in the absence of chemical substance,"yeast gene YNL156C, incubated two hours with chemical substance",1.1
same,The level of expressed mRNA in the presence of chemical substance/The level of expressed mRNA in the absence of chemical substance,"yeast gene YNL234W, incubated two hours with chemical substance",1.1
same,The level of expressed mRNA in the presence of chemical substance/The level of expressed mRNA in the absence of chemical substance,"yeast gene YNL281W, incubated two hours with chemical substance",1.0
same,The level of expressed mRNA in the presence of chemical substance/The level of expressed mRNA in the absence of chemical substance,"yeast gene YNL305C, incubated two hours with chemical substance",0.9
same,The level of expressed mRNA in the presence of chemical substance/The level of expressed mRNA in the absence of chemical substance,"yeast gene YNR068C, incubated two hours with chemical substance",1.2
same,The level of expressed mRNA in the presence of chemical substance/The level of expressed mRNA in the absence of chemical substance,"yeast gene YOL032W, incubated two hours with chemical substance",1.3
same,The level of expressed mRNA in the presence of chemical substance/The level of expressed mRNA in the absence of chemical substance,"yeast gene YOL036W, incubated two hours with chemical substance",0.8
same,The level of expressed mRNA in the presence of chemical substance/The level of expressed mRNA in the absence of chemical substance,"yeast gene YOL047C, incubated two hours with chemical substance",1.4
same,The level of expressed mRNA in the presence of chemical substance/The level of expressed mRNA in the absence of chemical substance,"yeast gene YOL071W, incubated two hours with chemical substance",1.3
same,The level of expressed mRNA in the presence of chemical substance/The level of expressed mRNA in the absence of chemical substance,"yeast gene YOL082W, incubated two hours with chemical substance",1.0
same,The level of expressed mRNA in the presence of chemical substance/The level of expressed mRNA in the absence of chemical substance,"yeast gene YOL083W, incubated two hours with chemical substance",1.1
same,The level of expressed mRNA in the presence of chemical substance/The level of expressed mRNA in the absence of chemical substance,"yeast gene YOL117W, incubated two hours with chemical substance",1.0
same,The level of expressed mRNA in the presence of chemical substance/The level of expressed mRNA in the absence of chemical substance,"yeast gene YOL131W, incubated two hours with chemical substance",1.0
same,The level of expressed mRNA in the presence of chemical substance/The level of expressed mRNA in the absence of chemical substance,yeast gene YOL150C,4.1
same,The level of expressed mRNA in the presence of chemical substance/The level of expressed mRNA in the absence of chemical substance,"yeast gene YOL162W, incubated two hours with chemical substance",2.0
same,The level of expressed mRNA in the presence of chemical substance/The level of expressed mRNA in the absence of chemical substance,"yeast gene YOR019W, incubated two hours with chemical substance",2.9
same,The level of expressed mRNA in the presence of chemical substance/The level of expressed mRNA in the absence of chemical substance,"yeast gene YOR197W, incubated two hours with chemical substance",0.8
same,The level of expressed mRNA in the presence of chemical substance/The level of expressed mRNA in the absence of chemical substance,"yeast gene YPL087W, incubated two hours with chemical substance",1.0
same,The level of expressed mRNA in the presence of chemical substance/The level of expressed mRNA in the absence of chemical substance,"yeast gene YPL196W, incubated two hours with chemical substance",1.3
same,The level of expressed mRNA in the presence of chemical substance/The level of expressed mRNA in the absence of chemical substance,"yeast gene YPL206C, incubated two hours with chemical substance",1.0
same,The level of expressed mRNA in the presence of chemical substance/The level of expressed mRNA in the absence of chemical substance,"yeast gene YPL222W, incubated two hours with chemical substance",0.9
same,The level of expressed mRNA in the presence of chemical substance/The level of expressed mRNA in the absence of chemical substance,"yeast gene YPR023C, incubated two hours with chemical substance",1.2
same,The level of expressed mRNA in the presence of chemical substance/The level of expressed mRNA in the absence of chemical substance,"yeast gene YPR151C, incubated two hours with chemical substance",2.3

# From patent US8192962B2, “Processes for detecting toxic substances” (Daikin Industries, Ltd., priority 2001, dated 2012)
